Results on nine molecules are retold here after PubChem BioAssay AID588845 (Broad Institute, 2011).

Test [1] relates to HMLE_shTWIST viability, CellTiter-Glo luminescence, 72 h. Put plainly: HMLE_shTWIST CSC-like cell viability loss, confirmation, CellTiter-Glo luminescence, dry powder, set 2 (AID 588845).
Assay in test [2]: as above
As to conditions: HMLE_shTWIST viability, CellTiter-Glo luminescence, 72 h; at 32 µM (top of the series). (Cellular ATP, detected with luciferase, serves as a proxy for viable cell number.)

Activity calls are given as the source filed them. No rule for the calls is given here.

For orientation: AC50 means the concentration at which the activity in the assay is half-maximal. For the molecule `Cc1csc(NC(=O)c2ccc(COc3ccccc3F)o2)n1`, in test [1], the AC50 was 0.13 µM. For the molecule `O=C(/C=C/c1ccc(-c2ccccc2)cc1)NC1=NCCS1`, the viability fraction in test [2] was 81.4% (inactive). Consider `O=C(/C=C/c1ccc(Cl)c(Cl)c1)NC1=NCCS1`, for which the viability fraction in test [2] is 71.5% (inactive). Regarding `Cc1csc(NC(=O)c2ccc(COc3cccc(Cl)c3)o2)n1`, the AC50 in test [1] is 4.3 µM. On the same count and under the same terms, the figure for `CCc1ccc(/C=C/C(=O)NC2=NCCS2)cc1` is 11.7 µM; for `Cc1csc(NC(=O)c2ccc(COc3cccc(F)c3)o2)n1` it is 1.7 µM. With `CC(C)c1ccc(/C=C/C(=O)NC2=NCCS2)cc1`, the viability fraction in test [2] was 8.35% (inactive). On to `Cc1csc(NC(=O)c2ccc(COc3ccccc3)o2)n1`, for which the AC50 in test [1] was 18.2 µM. Consider `COc1ccc(/C=C/C(=O)NC2=NCCS2)c(OC)c1`, for which the viability fraction in test [2] is 58.2% (inactive).
